Laboratory results reported in patent US7285564B2, “Substituted 4-amino-1-(pyridylmethyl)piperidine and related compounds” (Theravance, Inc., priority 2002, dated 2007).

Test system: oxotremorine-induced salivation
Test: In vivo rat salivation assay
Settings: rat bladder assay vs rat salivation assay
Method: Female Sprague-Dawley rats weighing 200 to 300 g were anesthetized with urethane (1.5 g/kg, s.c., Sigma, St. Louis, Mo.), with a supplement of 0.25 g/kg, s.c. urethane as needed. Urethane was administered at a concentration of 0.25 g/mL.
Rats were placed on a heated blanket on their dorsal side in an inclined position (20° angle) position (head down). A swab was placed in the rat's mouth. The test compound or vehicle was administered intravenously via the tail vein. After 5 min., oxotremorine (1.0 mg/kg) was administered subcutaneously. The swab was discarded and
Replaced by a pre-weighed swab. Saliva was then collected for 10 min. and then the swab was removed and re-weighed to determine the output of saliva. Dose-response curves were fitted with a four parameter logistic equation to obtain estimates of ID50 (dose required to produce 50% of the maximal response).
By comparing the ID50 values determined in the rat bladder assay and rat salivation assay, the in vivo bladder/salivation selectivity ratio was calculated for the compounds tested.

Structure (SMILES)	ID50 bladder/salivation selectivity ratio
Cc1ccc(O)c([C@H](CCN(C(C)C)C(C)C)c2ccccc2)c1 [tolterodine, reference compound]	~4.8
CCN(CC)CC#CCOC(=O)C(O)(c1ccccc1)C1CCCCC1 (centres unmarked) [oxybutynin, reference compound]	about 1.4
